Results from patent US11744815B1, “Pharmaceutical composition of dimethylguanidino valeric acid and plant flavonoids for treating chronic inflammatory diseases and cancer” (priority 2022, dated 2023).
Entries after “also recorded” stand apart in the source; their conditions may differ. Values belong to the molecule of their own block, whether it stands above or below them.

Tests used:
[1] = test system: MCU mutants deleted of Ile127, V135, or Ile127 and V135; test: MCU deletion mutants transfected to MCU KO cells; format: cell-based; details: for dependence of MCU activation on Ile127: MCU mutant deleted of Ile127 in MCU KO cells; for dependence of MCU activation on V135: MCU mutant deleted of V135 in MCU KO cells
Description: To test whether Ile127 and V135 are important for these compounds to activate MCU, we generated 3 different MCU mutants deleted of Ile127, V135, or Ile127 and V135. These MCU mutants were transfected to MCU KO cells and stimulated with kaempferol, daidzein, quercetin, or DMGV.

[2] = test system: Jurkat T cells; test: Mitochondrial ROS by flow cytometry using CellROX Green, Jurkat T cells; format: cell-based, human; details: for induction of ROS: kaempferol 5 μM, quercetin 25 μM, daidzein 5 μM
Description: (§1) The invention further investigated how DMGV suppresses cell proliferation and survival.
In order to locate the cellular compartment of ROS generated by DMGV, Jurkat T cells were incubated with the mitochondria-specific ROS inhibitor MitoQ (100 nM) for 15 min before stimulation with DMGV (504) for ROS measurement.
(§2) As certain flavonoids are known to active MCU, we tested whether DMGV and the flavonoids activate MCU in the same manner. Jurkat T cells were treated with the flavonoids [kaempferol (5 μM), quercetin (25 μM), or daidzein (5 μM)]. […] The molecular docking simulator SwissDock predicted that the flavonoids and DMGV bind to MCU in a same pocket.

[3] = biological target: T1, MCU (Homo sapiens, UniProt Q8NE86); test: Mitochondrial calcium influx in Jurkat cells expressing Mito-GEM-GECO; format: cell-based; details: for induction of mitochondrial calcium: Jurkat T cells, kaempferol 5 μM, quercetin 25 μM, daidzein 5 μM
T1 construct: endogenous in cells; host or cells: Jurkat T cells
T1 sequence (Q8NE86 51-351): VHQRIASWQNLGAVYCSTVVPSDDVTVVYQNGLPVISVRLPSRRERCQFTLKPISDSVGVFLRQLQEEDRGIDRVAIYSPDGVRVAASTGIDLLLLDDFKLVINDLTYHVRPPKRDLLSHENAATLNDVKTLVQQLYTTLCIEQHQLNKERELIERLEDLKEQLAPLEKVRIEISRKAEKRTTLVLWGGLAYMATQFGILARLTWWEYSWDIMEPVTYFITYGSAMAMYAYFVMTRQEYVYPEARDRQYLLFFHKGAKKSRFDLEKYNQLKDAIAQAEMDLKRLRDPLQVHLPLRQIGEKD
T1 sequence (Q9H4I9 48-107 partner limits assumed): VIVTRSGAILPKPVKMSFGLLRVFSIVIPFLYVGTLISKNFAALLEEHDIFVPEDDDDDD
Description: (§3) As a sudden influx of calcium to the mitochondria can cause ROS induction, we tested whether DMGV regulates calcium flux to induce ROS. Calcium flux was measured by flow cytometry using the calcium indicator Fluo-8. While stimulation of T cell receptor (TCR) by a stimulatory antibody triggered calcium release from ER (efflux), which in turn induced calcium influx from the outside to cytosol (influx). […] Because of the close proximity between ER and mitochondria, calcium efflux from ER leads to calcium import to the mitochondria, which can be mediated by MCU.
as §2

[4] = test system: THP-1 (Acute monocytic leukemia cell lines); test: Survival of hematological cancer cell line THP-1; format: cell-based
[5] = test system: K-562 (Human chronic myeloid leukemia cell lines); test: Survival of hematological cancer cell line K-562; format: cell-based
[6] = test system: calcium flux; test: Calcium flux by flow cytometry using Fluo-8; format: cell-based
Description: as §3

[7] = test system: autoimmune arthritis; test: Chronic autoimmune arthritis in SKG mice accelerated by laminarian; format: in vivo; details: i.p. 750 μg/mouse, twice a week, up to 50 days, start at score 8
Description: In the second model, SKG mice harbor a point mutation in ZAP-70^W163C and Develop Chronic autoimmune arthritis similar to human RA due to aberrant T cell activation. The disease can be accelerated by injection of […].

[8] = test system: AGXT2^+/+ and AGXT2^−/− T cells; test: Survival of AGXT2^+/+ and AGXT2^−/− T cells, 4 days, flow cytometry; format: cell-based, mice
Description: To investigate the role of AGXT2 and DMGV in T cell survival, AGXT2^+/+ and AGXT2^−/− T cells were stimulated with the indicated compounds (ADMA: 10 μM, SDMA: 10 μM, DMGV: 504, MitoQ: 100 nM) for 4 days and the survival rate was measured by flow cytometry.

[9] = test system: PC-3 (Human prostate cancer cell lines); test: Solid tumor cell survival by CCK-8 after 2 days, PC-3; format: cell-based
Description: (§4) In example one, pharmaceutical composition was screened and discovered natural small molecules that inhibit T cell survival and proliferation to use as therapeutics for chronic inflammatory diseases and cancers as taught in FIG. 1, T cells were stimulated with or without the indicated amount of DMGV and survival was measured by flow cytometry after 3 days. […] Solid tumor cancer cell lines were incubated with different doses of DMGV or 5-FU (5-fluorouracil), and cells survival was measured by CCK-8 after 2 days.

[10] = test system: AGXT2^−/− T cells; test: ROS induction in AGXT2-KO T cells; format: cell-based, mice; details: ADMA 10 μM, SDMA 10 μM, DMGV (504)
Description: DMGV is converted from asymmetric dimethylarginine (ADMA) or symmetric dimethylarginine (SDMA) by alanine-glyoxylate aminotransferase 2 (AGXT2) in the mitochondria whereas ADMA or SDMA is metabolized to L-citrulline in the cytosol as shown in FIG. 6A. In order to investigate the role of DMGV in T cells, we generated AGXT2-KO (AGXT2^−/−) mice using Crispr/Cas9 technology according to FIG. 6B. Neither ADMA (10 μM) or SDMA (10 μM) induce ROS in AGXT2^−/− T cells but DMGV (504) still does, an evidence that SDMA or ADMA induces ROS only when they are converted to DMGV (FIG. 6C).

[11] = test system: Jurkat cells; test: T cell leukemia model, Jurkat cells injected into tail vein of mice; format: in vivo, NSG/SCID mice; details: 700 μg/mouse i.p.
Description: The next experiment tested whether DMGV can eliminate cancer cells in vivo. […] After 2 weeks of the injection, the level of Jurkat cells in the peripheral blood reached around 60% of the total leukocytes. The model mice were injected with either PBS (Control) or DMGV (700 μg/mouse intraperitoneal injection, i.p.) for 2 weeks as shown in FIG. 3B.

[12] = test system: HCA-7 (colorectal cancer cell lines); test: Solid tumor cell survival by CCK-8 after 2 days, HCA-7; format: cell-based
Description: as §4

[13] = test system: HL-60 (Acute myeloid leukemia M3 cell lines); test: Survival of hematological cancer cell line HL-60; format: cell-based
[14] = test system: activated T cells; test: T cell survival by flow cytometry after 3 days; format: cell-based; details: stimulated with indicated amount of DMGV
Description: as §4

[15] = test system: activated T cells; test: Energy metabolism by Seahorse assay; format: cell-based, mouse
Description: The invention tested if DMGV relied on glycolysis to suppress cell survival.

[16] = test system: Jurkat (Human T lymphocytic leukemia cell lines); test: Survival of hematological cancer cell line Jurkat; format: cell-based
[17] = test system: HCT-8 (Human colorectal cancer cell lines); format: cell-based
Description: as §4

[18] = test system: mouse T cells; test: Mouse T cell survival in RPMI with or without glucose, 4 days; format: cell-based
Description: In order to test the effects of glycolysis on the DMGV function to inhibit survival, mouse T cells were activated with or without DMGV in RPMI with or without glucose for 4 days and the survival rates were measured by flow cytometry. […] Oxidative phosphorylation uses pyruvate, an end product of glycolysis, and thus a diminished glycolysis can decrease oxidative phosphorylation.

[19] = test system: mouse T cells; test: Mitochondrial ROS by flow cytometry using CellROX Green, mouse T cells; format: cell-based
Description: as §1

[20] = test system: human T cells; test: Mitochondrial ROS by flow cytometry using CellROX Green, human T cells; format: cell-based
Description: as §1

[21] = test system: chronic colitis; test: Chronic colitis by adoptive transfer of naïve CD4+ T cells; format: in vivo, Rag2^−/− mice
Description: The present invention tested if DMGV suppresses chronic T cell-mediated inflammation in two mouse models. In the first model, adoptive transfer of naïve CD4^+ T cells from syngeneic mice into immunodeficient (Rag2^−/−) mice induces chronic colitis similar to inflammatory bowel diseases (IBD) in humans, due to differentiation of T cells into pathogenic Th17 cells in the absence of regulatory T cells (Tregs). After adoptively transferring naïve CD4^+ T cells from syngeneic mice to recombinase activating gene-2-deficient (Rag2^−/−) mice to induce colitis, the mice showing the disease symptom in the form of loose stool around 4-6 weeks were randomly divided into two groups. One group (n=9) was treated with DMGV (i.p. 750 μg/mouse, twice a week) and the control group (n=11) with PBS up to 40 days and mortality was observed.

[22] = test system: T cell; test: ROS induction and T cell proliferation with selective iNOS inhibitor; format: cell-based
[23] = test system: human T cells; test: Human T cell survival by flow cytometry after 4 days; format: cell-based
[24] = MitoQ 100 nM with DMGV 504, 4 days

induction of mitochondrial calcium [3]: induced mitochondrial calcium
Molecule: O=c1c(-c2ccc(O)cc2)coc2cc(O)ccc12 [daidzein, 7-hydroxy-3-(4-hydroxyphenyl)-4H-chromen-4-one]
dependence of MCU activation on Ile127 [1]: independent on it
dependence of MCU activation on V135 [1]: mostly dependent on V135
induction of ROS ([2]; Jurkat T cells): induced mitochondrial calcium as wells ROS

Molecule: dimethylguanidino valeric acid [DMGV]
survival of THP-1 cells [4]: suppresses survival
survival of K-562 cells [5]: suppresses survival
calcium efflux (release from ER) ([6]; Fluo-8): induced efflux
calcium influx from the outside to cytosol ([6]; Fluo-8): not influx
arthritis score [7]: significantly decreased the arthritis score
survival of AGXT2^+/+ T cells ([8]; DMGV: 504, 4 days): inhibited survival of AGXT2^+/+ T cells
survival of AGXT2^−/− T cells ([8]; DMGV: 504, 4 days): rescued AGXT2^−/− T cells
proliferation of PC-3 [9]: suppresses proliferation
ROS induction in AGXT2^−/− T cells [10]: still does
Jurkat cells in the peripheral blood ([11]; after 2 weeks of treatment): completely eliminated Jurkat cells
cancer-induced death ([11]; after 4 weeks of treatment): prevented the cancer-induced death
proliferation of HCA-7 [12]: suppresses proliferation
dependence of MCU activation on Ile127 [1]: completely; also recorded: dependent mostly on Ile127
dependence of MCU activation on V135 [1]: independent on Va1135
survival of HL-60 cells [13]: suppresses survival
survival and proliferation of activated T cells [14]: inhibit the survival and proliferation of activated T cells
glycolysis [15]: significantly inhibited
oxidative phosphorylation [15]: significantly inhibited
survival of Jurkat cells [16]: suppresses survival
induction of mitochondrial ROS ([2]; Jurkat T cells): rapidly induces mitochondrial ROS
ROS induction in glucose-free medium ([2]; Jurkat T cells in RPMI without glucose for 24 h): does not induce ROS
dependence of DMGV-induced ROS on MCU ([2]; Ru360 or MCU KO): dependent on MCU
inhibition of HCT-8 proliferation compared with 5-FU [17]: inhibited proliferation of HCT-8 better than a known chemotherapeutic drug, 5-FU
proliferation of HCT-8 ([17]; CCK-8 after 2 days): suppresses proliferation
suppression of HCT-8 proliferation, 3D versus 2D culture ([17]; Matrigel (3D) vs 2-dimensional culture): much more effective in suppressing proliferation of HCT-8 cultured in Matrigel™ (3D) than 2D
T cell survival in glucose-free culture [18]: no longer affected T cell survival
calcium influx to the mitochondria ([3]; Jurkat cells, Mito-GEM-GECO): induces calcium influx to the mitochondria
induction of mitochondrial ROS [19]: rapidly induces mitochondrial ROS
induction of mitochondrial ROS [20]: rapidly induces mitochondrial ROS
survival (mortality) of colitis mice ([21]; i.p. 750 μg/mouse, twice a week, up to 40 days, n=9): all except for one mouse survived
normalized IL-17A+ T cell number in colonic tissue ([21]; survived mice, compared to the control group): significantly lower

Molecule: CN(C)C(N)=NCCC[C@H](N)C(=O)O [ADMA, asymmetric dimethylarginine]
ROS induction in AGXT2^−/− T cells [10]: do not induce ROS

Molecule: CC(=N)NCCCC[C@H](N)C(=O)O [N6-(1-iminoethyl)-L-lysine]
ROS induction [22]: does not induce ROS
T cell proliferation [22]: does not induce ROS or inhibit T cell proliferation

Molecule: CN=C(NC)NCCC[C@H](N)C(=O)O [SDMA, symmetric dimethylarginine]
ROS induction in AGXT2^−/− T cells [10]: do not induce ROS

effect on DMGV-induced calcium influx to the mitochondria ([3]; Ru360 (104)): completely inhibited
Molecule: Ru360 [reference compound]
effect on TCR-induced calcium flux ([6]; Ru360): not affected

Molecule: COC1=C(OC)C(=O)C(CCCCCCCCCC[P+](c2ccccc2)(c2ccccc2)c2ccccc2)=C(C)C1=O [MitoQ, reference compound]
effect on DMGV-induced inhibition of AGXT2^+/+ T cells [8, 24]: rescued AGXT2^+/+ T cells from DMGV-induced inhibition
effect on DMGV-induced rescue of AGXT2^−/− T cells [8, 24]: inhibited DMGV-induced rescue of AGXT2^−/− T cells
effect on DMGV-induced ROS production ([2]; MitoQ (100 nM) 15 min before stimulation with DMGV (504)): completely inhibited ROS production
effect on DMGV-induced T cell death ([23]; human T cells, DMGV with or without MitoQ, 4 days): rescued T cells from DMGV-induced cell death

induction of mitochondrial calcium [3]: induced mitochondrial calcium
Molecule: O=c1c(O)c(-c2ccc(O)cc2)oc2cc(O)cc(O)c12 [kaempferol, 3,5,7-Trihydroxy-2-(4-hydroxyphenyl)-4H-chromen-4-one]
dependence of MCU activation on Ile127 [1]: independent on it
dependence of MCU activation on V135 [1]: totally dependent on it; also recorded: mostly dependent on V135
induction of ROS ([2]; Jurkat T cells): induced mitochondrial calcium as wells ROS
survival of activated human T cells ([23]; activated human T cells): suppressed survival of activated human T cells via mitochondrial ROS
